Several values for one entry are separate records, joined by “and”; a condition that tells them apart may be missing. Equal values may be shown once. Read-outs that look alike come from different tables or passages of the source. Each block holds one compound with its values, some of them ahead of it.
Columns and labels:
hP2Y14 receptor = biological target: T1, hP2Y14 receptor (Homo sapiens, UniProt Q15391); experiment: P2Y14 receptor-inhibited accumulation of cAMP; assay type: cell-based; details: for agonist activity at the P2Y14 receptor (in words): HEK-293 cells expressing hP2Y14; for fold selectivity for P2Y14 in comparison to P2Y6: ratio of EC50 at hP2Y6 to EC50 at hP2Y14; for fold more potent than UDP 3 at the P2Y14 receptor / fold less potent than UDP 3 at the P2Y14 receptor: relative to compound 3; for EC50: read-out: EC50, hP2Y14, inhibition of cAMP formation, HEK-293 cells stably transfected with hP2Y14, mean ± standard error, N = 3, NE = no effect at 10 μM
T1 sequence (Q15391 1-338): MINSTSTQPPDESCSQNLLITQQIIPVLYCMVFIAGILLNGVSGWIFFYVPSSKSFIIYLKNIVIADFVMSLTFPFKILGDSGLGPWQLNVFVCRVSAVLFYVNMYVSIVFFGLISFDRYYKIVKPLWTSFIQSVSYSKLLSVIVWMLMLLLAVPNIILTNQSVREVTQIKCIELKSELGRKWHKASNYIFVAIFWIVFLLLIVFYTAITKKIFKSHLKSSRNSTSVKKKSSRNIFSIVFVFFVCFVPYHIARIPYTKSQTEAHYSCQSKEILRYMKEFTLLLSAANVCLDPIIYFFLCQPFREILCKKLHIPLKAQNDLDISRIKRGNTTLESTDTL

hP2Y6 receptor [1] = biological target: T2, hP2Y6 receptor (Homo sapiens, UniProt Q15077); experiment: P2Y6 receptor-stimulated PLC activity; assay type: cell-based; details: for agonist activity at the P2Y6 receptor (in words): at the concentrations tested
T2 sequence (Q15077 whole entry): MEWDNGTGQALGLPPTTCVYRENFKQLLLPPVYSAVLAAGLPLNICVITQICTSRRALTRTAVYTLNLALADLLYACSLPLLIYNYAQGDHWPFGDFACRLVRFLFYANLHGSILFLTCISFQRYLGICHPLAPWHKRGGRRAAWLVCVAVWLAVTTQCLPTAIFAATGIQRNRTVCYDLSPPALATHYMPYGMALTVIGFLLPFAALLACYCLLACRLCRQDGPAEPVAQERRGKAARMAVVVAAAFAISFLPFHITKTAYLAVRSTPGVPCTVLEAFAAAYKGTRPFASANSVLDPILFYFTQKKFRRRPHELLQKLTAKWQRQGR

hP2Y6 receptor [2] = biological target: T2, hP2Y6 receptor; details: read-out: EC50, hP2Y6; stimulation of PLC, hP2Y6 in 1321N1 cells; footnote b; NE = no effect at 10 μM; ref Maruoka et al. 15, Besada et al. 17, Ko et al. 18; cited from earlier work

agonist activity at the P2Y14 receptor (in words) (hP2Y14 receptor): moderately potent agonists
agonist activity at the P2Y14 receptor (in words) (hP2Y14 receptor; listed as UDP): full agonist
SMILES: O=c1ccn([C@@H]2O[C@H](COP(=O)(O)OP(=O)(O)O)[C@@H](O)[C@H]2O)c(=O)[nH]1 [Compound 3, uridine-5′-diphosphate, reference compound]

fold selectivity for P2Y14 in comparison to P2Y6 (hP2Y14 receptor): 233 fold
fold more potent than UDP 3 at the P2Y14 receptor (hP2Y14 receptor): 83 fold
SMILES: O=c1ccn([C@@H]2O[C@H](COP(=O)(O)OP(=O)(O)O)[C@@H](O)[C@H]2O)c(=S)[nH]1 [Compound 4, 2-thio-UDP]

agonist activity at the P2Y14 receptor (in words) (hP2Y14 receptor): moderately potent agonists
SMILES: O=c1[nH]c(=S)ccn1[C@@H]1O[C@H](COP(=O)(O)OP(=O)(O)O)[C@@H](O)[C@H]1O [Compound 5, 4-thio-UDP]

fold less potent than UDP 3 at the P2Y14 receptor (hP2Y14 receptor): 20 fold
SMILES: CO/N=c1\ccn([C@@H]2O[C@H](COP(=O)(O)OP(=O)(O)O)[C@@H](O)[C@H]2O)c(=O)[nH]1.Cl [Compound 7, N^4-OCH3-CDP]

EC50 (hP2Y14 receptor): > 10 µM
EC50 (hP2Y6 receptor [1]; read-out: EC50, hP2Y6, stimulation of PLC, hP2Y6 stably expressed in 1321N1 cells, mean ± standard error, N = 3, >10,000 = <50% effect at 10 μM, NE = no effect at 10 μM): > 10 µM
SMILES: O=c1ccn([C@H]2[C@H](O)[C@H](O)[C@@]3(COP(=O)(O)OP(=O)(O)O)C[C@H]23)c(=O)[nH]1 [Compound 8, (N)-methanocarba UDP]

EC50 (hP2Y14 receptor): > 10 µM
SMILES: O=c1ccn([C@@]23C[C@H]2[C@H](COP(=O)(O)OP(=O)(O)O)[C@@H](O)[C@H]3O)c(=O)[nH]1 [Compound 9, (S)-methanocarba UDP]

agonist activity at the P2Y6 receptor (in words) (hP2Y6 receptor [1]): did not activate
SMILES: O=c1ccn([C@@H]2O[C@H](COP(=O)(O)C(F)(F)P(=O)(O)O)[C@@H](O)[C@H]2O)c(=O)[nH]1 [Compound 12, α,β-difluoromethylene UDP]
EC50 (hP2Y6 receptor [2]): > 10 µM

fold selectivity for P2Y14 in comparison to P2Y6 (hP2Y14 receptor): not selective
SMILES: O=c1[nH]c(=O)n([C@@H]2O[C@H](COP(=O)(O)C(F)(F)P(=O)(O)O)[C@@H](O)[C@H]2O)cc1I [Compound 13, 5-I-Up-CF2-p]

SMILES: COP(=O)(O)OP(=O)(O)OC[C@H]1O[C@@H](n2ccc(=O)[nH]c2=O)[C@H](O)[C@@H]1O.N [Compound 14, Diphosphoric acid 1-β-methyl ester 2-(uridine-5′-yl)ester]
agonist activity at the P2Y14 receptor (in words) (hP2Y14 receptor): weakly activated
agonist activity at the P2Y6 receptor (in words) (hP2Y6 receptor [1]): inactive

SMILES: COP(=O)(O)OP(=O)(O)OC[C@H]1O[C@@H](n2ccc(=O)[nH]c2=S)[C@H](O)[C@@H]1O.N [Compound 15, Diphosphoric acid 1-β-methyl ester 2-(2-thiouridine-5′-yl)ester]
fold selectivity for P2Y14 in comparison to P2Y6 (hP2Y14 receptor): > 180 fold

SMILES: COP(=O)(O)OP(=O)(O)OC[C@H]1O[C@@H](n2ccc(=S)[nH]c2=O)[C@H](O)[C@@H]1O [Compound 16, Diphosphoric acid 1-β-methyl ester 2-(4-thiouridine-5′-yl)ester]
EC50 (hP2Y14 receptor): > 10 µM

SMILES: CCOP(=O)(O)OP(=O)(O)OC[C@H]1O[C@@H](n2ccc(=O)[nH]c2=S)[C@H](O)[C@@H]1O.N [Compound 17, Diphosphoric acid 1-β-ethyl ester 2-(2-thiouridine-5′-yl)ester]
fold selectivity for P2Y14 in comparison to P2Y6 (hP2Y14 receptor): > 200 fold and > 250 fold

fold selectivity for P2Y14 in comparison to P2Y6 (hP2Y14 receptor): > 200 fold
SMILES: CCCOP(=O)(O)OP(=O)(O)OC[C@H]1O[C@@H](n2ccc(=O)[nH]c2=S)[C@H](O)[C@@H]1O.N [Compound 18, Diphosphoric acid 1-β-propyl ester 2-(2-thiouridine-5′-yl)ester]

SMILES: N.N#CCCOP(=O)(O)OP(=O)(O)OC[C@H]1O[C@@H](n2ccc(=O)[nH]c2=O)[C@H](O)[C@@H]1O [Compound 19, Diphosphoric acid 1-β-(2-cyanoethyl)ester 2-(uridine-5′-yl)ester]
agonist activity at the P2Y14 receptor (in words) (hP2Y14 receptor): poorly tolerated

fold less potent than UDP 3 at the P2Y14 receptor (hP2Y14 receptor): 2 fold
SMILES: C#CCCOP(=O)(O)OP(=O)(O)OC[C@H]1O[C@@H](n2ccc(=O)[nH]c2=O)[C@H](O)[C@@H]1O.CCN(CC)CC [Compound 20, Diphosphoric acid 1-β-(3-butynyl)ester 2-(uridine-5′-yl)ester]

fold selectivity for P2Y14 in comparison to P2Y6 (hP2Y14 receptor): > 900 fold
fold more potent than UDP 3 at the P2Y14 receptor (hP2Y14 receptor): 16 fold
SMILES: C#CCCOP(=O)(O)OP(=O)(O)OC[C@H]1O[C@@H](n2ccc(=O)[nH]c2=S)[C@H](O)[C@@H]1O.CCN(CC)CC [Compound 21, Diphosphoric acid 1-β-(3-butynyl) ester 2-(2-thiouridine-5′-yl)ester]

fold less potent than UDP 3 at the P2Y14 receptor (hP2Y14 receptor): 10 fold
SMILES: N.O=c1ccn([C@@H]2O[C@H](COP(=O)(O)OP(=O)(O)OCC(O)CO)[C@@H](O)[C@H]2O)c(=O)[nH]1 (stereo partly drawn) [Compound 22, Diphosphoric acid 1-α-glycerol ester 2-(uridine-5′-yl)ester]

SMILES: CC(C)(C)OP(=O)(O)OP(=O)(O)OC[C@H]1O[C@@H](n2ccc(=O)[nH]c2=O)[C@H](O)[C@@H]1O [Compound 24, Diphosphoric acid 1-β-tert-butyl ester 2-(uridine-5′-yl)ester]
EC50 (hP2Y6 receptor [1]): 10.8 µM

fold more potent than UDPG at the P2Y14 receptor (hP2Y14 receptor; relative to UDPG 1): 11 fold
fold more potent than the corresponding 2-oxo analogue 24 at the P2Y14 receptor (hP2Y14 receptor; relative to compound 24): 8 fold
SMILES: CC(C)(C)OP(=O)(O)OP(=O)(O)OC[C@H]1O[C@@H](n2ccc(=O)[nH]c2=S)[C@H](O)[C@@H]1O.N [Compound 25, Diphosphoric acid 1-β-tert-butyl ester 2-(2-thiouridine-5′-yl)ester]

— publication PMC2804908 (Journal of medicinal chemistry, 2010)
